# Columns and labels:
# Tetranychus urticae = experiment: mortality of red spider mites (TU), contact test; format: in vivo, Tetranychus urticae (red spider mites - adult); settings: 500 ppm, French bean leaf, 3 days; for mortality at 500 ppm: Tetranychus urticae, 72 h, read-out: grading of mortality, TU
# Protocol: (§1) The activity of the Product was determined using a variety of insect pests. The Product was used in the form of liquid preparations containing 500 or 100 parts per million (ppm) by weight of the Product. The preparations were made by dissolving the Product in acetone and diluting the solutions with water containing 0.01% by weight of a wetting agent sold under the trade name "LISSAPOL" NX until the liquid preparations contained the required concentration of the Product. "Lissapol" is a Registered Trade Mark.
# (§2) The test procedure adopted with regard to each pest was basically the same and comprised supporting a number of the pests on a medium which was usually a host plant or a foodstuff on which the pests feed, and treating either or both the pests and the medium with the preparations. The mortality of the pests was then assessed at periods usually varying from one to three days after the treatment.
# (§3) The results of the tests are given in Table IV for each of the Products, at the rate in parts per million given in the second column as a grading of mortality designated as A, B or C wherein A indicates 80-100% mortality or knockdown, B indicates 50-79% mortality or knockdown and C indicates less than 50% mortality or knockdown.
# (§4) In Table IV the pest organism used is designated by a letter code and the pests species, the support medium or food, and the type and duration of test is given in Table III.
# (red spider mites - adult)
# Myzus persicae = experiment: mortality of aphids (MP), contact test; format: in vivo, Myzus persicae (aphids); settings: 500 ppm, leaf, 2 days; for grading of mortality, MP: 2880 min; for mortality at 500 ppm: Myzus persicae, 48 h, read-out: grading of mortality, MP
# Protocol: as §1, §2, §3, §4
# Nilaparvata lugens = experiment: mortality of green leaf hopper (NL), contact test; format: in vivo, Nilaparvata lugens (brown planthopper); settings: 500 ppm, cabbage leaf, 6 days; for grading of mortality, NL: 8640 min; for mortality at 500 ppm: Nilaparvata lugens, in Brassica oleracea, 144 h, read-out: grading of mortality, NL
# Protocol: as §1, §2, §3, §4
# Musca domestica [1] = experiment: knockdown of houseflies (MD/KD); format: in vivo, Musca domestica (houseflies - adults); settings: 500 ppm, cotton wool/sugar, 4 hours; for pest or weed control at 500 ppm: Musca domestica, read-out: grading of knockdown, MD/KD
# Protocol: as §1, §2
# In case of the species Musca domestica (housefly), additional tests to determine the knockdown effect of the compounds were performed.
# as §3, §4
# Musca domestica [2] = experiment: mortality of houseflies (MD), contact test; format: in vivo, Musca domestica (houseflies - adults); settings: 500 ppm, cotton wool/sugar, 1 day; for mortality at 500 ppm: Musca domestica, 24 h, read-out: grading of mortality, MD
# Protocol: as §1, §2, §3, §4
# Blattella germanica = experiment: mortality of cockroach nymphs (BG), residual test; format: in vivo, Blattella germanica (cockroach nymphs); settings: 500 ppm, plastic pot, 3 days; for mortality at 500 ppm: Blattella germanica, 72 h, read-out: grading of mortality, BG
# Protocol: as §1, §2, §3, §4
# Heliothis viriscens = experiment: whole plant or invertebrate; format: in vivo, Heliothis viriscens (tobacco budworm); settings: in Gossypium hirsutum, 72 h, read-out: grading of mortality, HV
# Protocol: as §1, §2, §3, §4
# Chilo partellurs = experiment: mortality of stem borers (CP), residual test; format: in vivo, Chilo partellurs (Stem borers); settings: 500 ppm, oil seed rape leaf, 3 days; for mortality at 500 ppm: Chilo, 72 h, read-out: grading of mortality, CP
# Protocol: as §1, §2, §3, §4
# Diabrotica balteata = experiment: mortality of rootworm larvae (DB), residual test; format: in vivo, Diabrotica balteata (rootworm larvae); settings: 500 ppm, filter paper/maize seed, 3 days; for grading of mortality, DB: 4320 min; for mortality at 500 ppm: Diabrotica balteata, in Zea mays, 72 h, read-out: grading of mortality, DB
# Protocol: as §1, §2, §3, §4
Compound,mortality at 500 ppm (Tetranychus urticae),"grading of mortality, MP (Myzus persicae)","grading of mortality, NL (Nilaparvata lugens)",pest or weed control at 500 ppm (Musca domestica [1]),mortality at 500 ppm (Musca domestica [2]),mortality at 500 ppm (Blattella germanica),mortality at 500 ppm (Heliothis viriscens),mortality at 500 ppm (Chilo partellurs),"grading of mortality, DB (Diabrotica balteata)",mortality at 500 ppm (Myzus persicae),mortality at 500 ppm (Nilaparvata lugens),mortality at 500 ppm (Diabrotica balteata),"grading of mortality, TU (Tetranychus urticae)","grading of knockdown, MD/KD (Musca domestica [1])","grading of mortality, MD (Musca domestica [2])","grading of mortality, BG (Blattella germanica)","grading of mortality, CP (Chilo partellurs)"
"CC(C)(C=Cc1ccc(Cl)cc1)COCc1cccc(Oc2ccccc2)c1 [Compound 1, 3,3-Dimethyl-1-(4-chlorophenyl)-4-(3-phenoxybenzyloxy)but-1-ene]",50 to 79%,C (C indicates less than 50% mortality or knockdown),B (B indicates 50-79% mortality or knockdown),80 to 100%,50 to 79%,< 50%,80 to 100%,80 to 100%,C (C indicates less than 50% mortality or knockdown),–,–,–,–,–,–,–,–
"CC(C)(/C=C\c1ccc(Cl)cc1)COCc1cccc(Oc2ccccc2)c1 [Compound 2, 3,3-Dimethyl-1-(4-chlorophenyl)-4-(3-phenoxybenzyloxy)but-1-ene]",< 50%,–,–,< 50%,< 50%,< 50%,< 50%,50 to 79%,–,< 50%,< 50%,< 50%,–,–,–,–,–
"CCOc1ccc(/C=C\C(C)(C)COCc2cccc(Oc3ccccc3)c2)cc1 [Compound 3, 3,3-Dimethyl-1-(4-ethoxyphenyl)-4-(3-phenoxybenzyloxy)but-1-ene]",< 50%,–,–,< 50%,< 50%,< 50%,< 50%,< 50%,–,< 50%,< 50%,< 50%,–,–,–,–,–
"CCOc1ccc(/C=C/C(C)(C)COCc2cccc(Oc3ccccc3)c2)cc1 [Compound 4, 3,3-Dimethyl-1-(4-ethoxyphenyl)-4-(3-phenoxybenzyloxy)but-1-ene]",< 50%,–,–,< 50%,< 50%,< 50%,< 50%,< 50%,–,< 50%,< 50%,< 50%,–,–,–,–,–
"CC(C)(/C=C\c1ccc(F)cc1)COCc1ccc(F)c(Oc2ccccc2)c1 [Compound 5, 3,3-dimethyl-1-(4-fluorophenyl)-4-(4-fluoro-3-phenoxybenzyloxy)but-1-ene]",< 50%,–,–,< 50%,< 50%,< 50%,< 50%,< 50%,–,< 50%,< 50%,< 50%,–,–,–,–,–
"CC(C)(/C=C/c1ccc(F)cc1)COCc1ccc(F)c(Oc2ccccc2)c1 [Compound 6, 3,3-dimethyl-1-(4-fluorophenyl)-4-(4-fluoro-3-phenoxybenzyloxy)but-1-ene]",50 to 79%,–,–,80 to 100%,80 to 100%,80 to 100%,80 to 100%,80 to 100%,–,80 to 100%,80 to 100%,80 to 100%,–,–,–,–,–
"CC(C)(C=Cc1ccc(Cl)cc1)COCc1ccc(F)c(Oc2ccccc2)c1 [Compound 7, 3,3-Dimethyl-1-(4-chlorophenyl)-4-(4-fluoro-3-phenoxybenzyloxy)but-1-ene]",< 50%,–,–,80 to 100%,80 to 100%,< 50%,80 to 100%,80 to 100%,–,80 to 100%,< 50%,80 to 100%,–,–,–,–,–
"Cc1ccc(C=CC(C)(C)COCc2ccc(F)c(Oc3ccccc3)c2)cc1 [Compound 8, 3,3-Dimethyl-1-(4-methylphenyl)-4-(4-fluoro-3-phenoxybenzyloxy)but-1-ene]",< 50%,–,–,80 to 100%,80 to 100%,50 to 79%,80 to 100%,80 to 100%,–,80 to 100%,80 to 100%,80 to 100%,–,–,–,–,–
"CC(C)(C=Cc1ccccc1)COCc1ccc(F)c(Oc2ccccc2)c1 [Compound 9, 3,3-Dimethyl-1-phenyl-4-(4-fluoro-3-phenoxybenzyloxy)but-1-ene]",< 50%,–,–,80 to 100%,80 to 100%,< 50%,80 to 100%,80 to 100%,–,80 to 100%,80 to 100%,80 to 100%,–,–,–,–,–
"CCOc1ccc(/C=C/C(C)(C)COCc2ccc(F)c(Oc3ccccc3)c2)cc1 [Compound 10, 3,3-Dimethyl-1-(4-ethoxyphenyl)-4-(4-fluoro-3-phenoxybenzyloxy)but-1-ene]",< 50%,–,–,50 to 79%,50 to 79%,< 50%,80 to 100%,80 to 100%,–,50 to 79%,< 50%,< 50%,–,–,–,–,–
"CC(C)(C=Cc1ccc(F)cc1)COCc1cccc(Oc2ccccc2)c1 [Compound 11, 3,3-Dimethyl-1-(4-fluorophenyl)-4-(3-phenoxybenzyloxy)but-1-ene]",< 50%,–,–,80 to 100%,50 to 79%,< 50%,80 to 100%,80 to 100%,–,< 50%,80 to 100%,50 to 79%,–,–,–,–,–
"CC(C)(/C=C/c1ccc(C(F)(F)F)cc1)COCc1cccc(Oc2ccccc2)c1 [Compound 12, 3,3-dimethyl-1-(4-trifluoromethylphenyl)-4-(3-phenoxybenzyloxy)but-1-ene]",< 50%,–,–,< 50%,< 50%,50 to 79%,< 50%,80 to 100%,–,50 to 79%,80 to 100%,< 50%,–,–,–,–,–
"CC(C)(C=Cc1ccc(Cl)cc1)COCc1cccc(Oc2ccccc2)c1 [Compound 13, 3,3-Dimethyl-1-(4-chlorophenyl)-4-(3-phenoxybenzyloxy)but-1-ene]",–,A (A indicates 80-100% mortality or knockdown),A (A indicates 80-100% mortality or knockdown),–,–,–,–,–,A (A indicates 80-100% mortality or knockdown),–,–,–,B (B indicates 50-79% mortality or knockdown),A (A indicates 80-100% mortality or knockdown),B (B indicates 50-79% mortality or knockdown),C (C indicates less than 50% mortality or knockdown),A (A indicates 80-100% mortality or knockdown)
"CCC(C)(/C=C/c1ccc(Cl)cc1)COCc1cccc(Oc2ccccc2)c1 (stereo not shown) [Compound 25, 3-Ethyl-3-methyl-1-(4-chlorophenyl)-4-(3-phenoxybenzyloxy)but-1-ene]",< 50%,–,–,< 50%,50 to 79%,80 to 100%,80 to 100%,–,–,50 to 79%,50 to 79%,< 50%,–,–,–,–,–
